According to paper PMC6008465 (British Journal of Cancer, 2018):
Marks after values point to notes of the source that are not given here.

Tested on: metastatic BRAF-mutated or WT melanoma
Assay: Part B tumour response (RECIST 1.0)
Type: in vivo, human
Conditions: for Duration of SD: one patient; for Median (95% CI) duration of PFS / Median (95% CI) duration of SD: Kaplan-Meier estimate
Procedure: In Part B, an adaptive study design was planned to define an optimal dosing schedule. […] One dose escalation (from 160 mg/m^2 to 320 mg/m^2) was allowed in Schedule II for MTD determination. […] Toxicity was managed as before. Up to 30 patients with BRAF-mutated melanoma and up to 29 patients with BRAF-WT melanoma were to be enrolled in Schedule I. Up to 30 patients were to be enrolled into Schedule II once the MTD was confirmed.
Efficacy was assessed by tumour response determined by investigator review of computed tomography/magnetic resonance imaging scans using Response Evaluation Criteria in Solid tumours version 1.0 (RECIST).[17]

[1] = Part B, BRAF-WT 320 mg/m^2 once weekly (n=7)
[2] = Part B, BRAF-mutated 160 mg/m^2 twice weekly (n=3)
[3] = Part B, BRAF-mutated 320 mg/m^2 once weekly (n=20)

SMILES: CCNc1cc(O)c2c(c1)/C=C/C[C@H](O)[C@H](O)C(=O)/C=C\[C@@H](C)[C@H](C)OC2=O [E6201, (3S,4R,5Z,8S,9S,11E)-14-(ethylamino)-8,9,16-trihydroxy-3,4-dimethyl-3,4,9,19-tetrahydro-1H-2-benzoxacyclotetradecine-1,7 (8H)-dione]
- Patients with PR / patients (Part B, BRAF-WT): 1/7
- Patients with SD / patients (Part B, BRAF-WT): 1/7
- Complete response (CR) [1]: 0 n (%)
- Disease control rate (CR+PR+SD) [1]: 2 (28.6) n (%)
- Not evaluable (NE) [1]: 1 (14.3) n (%)
- Overall response rate (CR+PR) [1]: 1 (14.3) n (%)
- Partial response (PR) [1]: 1 (14.3)^b n (%)
- Progressive disease (PD) [1]: 2 (28.6) n (%)
- Duration of SD (Part B, BRAF-WT 320 mg/m^2 once weekly): 4 cycles
- Disease control rate (DCR; complete response + PR + SD) (Part B, BRAF-WT melanoma (2/7)): 28.6%
- Complete response (CR) [2]: 0 n (%)
- Disease control rate (CR+PR+SD) [2]: 1 (33.3) n (%)
- Not evaluable (NE) [2]: 0 n (%)
- Overall response rate (CR+PR) [2]: 0 n (%)
- Partial response (PR) [2]: 0 n (%)
- Progressive disease (PD) [2]: 1 (33.3) n (%)
- Median (95% CI) duration of PFS [2]: 83.5 (29.0–138.0) days
- Median (95% CI) duration of SD [2]: 138.0 (29.0–138.0) days
- Duration of SD (Part B, BRAF-mutated 160 mg/m^2 twice weekly): > 4 cycles
- Patients with SD for ≥4 cycles (Part B, BRAF-mutated 320 mg/m^2 once weekly): 5 patients
- Complete response (CR) [3]: 0 n (%)
- Disease control rate (CR+PR+SD) [3]: 9 (45.0) n (%)
- Not evaluable (NE) [3]: 1 (5.0) n (%)
- Overall response rate (CR+PR) [3]: 2 (10.0) n (%)
- Partial response (PR) [3]: 2 (10.0)^a n (%)
- Progressive disease (PD) [3]: 6 (30.0) n (%)
- Median (95% CI) duration of PFS [3]: 73.0 (26.0–166.0) days
- Median (95% CI) duration of SD [3]: 73.0 (29.0–166.0) days
- Patients with PR / patients (Part B, BRAF-mutated melanoma): 2/23
- Patients with SD / patients (Part B, BRAF-mutated melanoma): 8/23
- Disease control rate (DCR; complete response + PR + SD) (Part B, BRAF-mutated melanoma (10/23)): 43.5%
- Complete response (CR) (Part B, Total (N=30)): 0 n (%)
- Disease control rate (CR+PR+SD) (Part B, Total (N=30)): 12 (40.0) n (%)
- Not evaluable (NE) (Part B, Total (N=30)): 2 (6.7) n (%)
- Overall response rate (CR+PR) (Part B, Total (N=30)): 3 (10.0) n (%)
- Partial response (PR) (Part B, Total (N=30)): 3 (10.0) n (%)
- Progressive disease (PD) (Part B, Total (N=30)): 9 (30.0) n (%)
- Number of partial responses (PR) (Part B, all): three
- Patients with SD for ≥4 cycles (3.7 months) (Part B, all groups): seven
- Number of partial responses (PR) (Part B, BRAF-WT melanoma, 320 mg/m^2 once-weekly): 1
- Number of partial responses (PR) (Part B, V600E BRAF-mutated melanoma, 320 mg/m^2 once-weekly): 2
- Response of brain metastases (one patient with BRAF-mutated melanoma who achieved a PR): brain metastases that responded to treatment
